Laboratory results reported in ChEMBL document CHEMBL3112509, “Synthesis and antimicrobial activity of (1,4-phenylene)bis(arylsulfonylpyrazoles and isoxazoles)” (2014).
Activity calls are given as the source filed them. No cut-off for these calls is given here.

Legend:
Assay type in all cases: functional
Penicillium chrysogenum [1] = assay: Antifungal activity against Penicillium chrysogenum at 100 ug/well after 48 hrs by agar well diffusion method; conditions: read-out: DIZ
Penicillium chrysogenum [2] = assay: Antifungal activity against Penicillium chrysogenum at 50 ug/well after 48 hrs by agar well diffusion method; conditions: read-out: DIZ
Aspergillus niger [3] = assay: Antifungal activity against Aspergillus niger at 50 ug/well after 48 hrs by agar well diffusion method; conditions: read-out: DIZ
Aspergillus niger [4] = assay: Antifungal activity against Aspergillus niger at 100 ug/well after 48 hrs by agar well diffusion method; conditions: read-out: DIZ
Klebsiella pneumoniae [5] = assay: Antibacterial activity against Klebsiella pneumoniae at 100 ug/well after 24 hrs by agar well diffusion method; conditions: for zone of inhibition at 100 µg/disc: read-out: DIZ
Klebsiella pneumoniae [6] = assay: Antibacterial activity against Klebsiella pneumoniae at 50 ug/well after 24 hrs by agar well diffusion method; conditions: for zone of inhibition at 50 µg/disc: read-out: DIZ
Pseudomonas aeruginosa [7] = assay: Antibacterial activity against Pseudomonas aeruginosa at 100 ug/well after 24 hrs by agar well diffusion method; conditions: for zone of inhibition at 100 µg/disc: read-out: DIZ
Pseudomonas aeruginosa [8] = assay: Antibacterial activity against Pseudomonas aeruginosa at 50 ug/well after 24 hrs by agar well diffusion method; conditions: for zone of inhibition at 50 µg/disc: read-out: DIZ
Bacillus subtilis [9] = assay: Antibacterial activity against Bacillus subtilis at 100 ug/well after 24 hrs by agar well diffusion method; conditions: for zone of inhibition at 100 µg/disc: read-out: DIZ
Bacillus subtilis [10] = assay: Antibacterial activity against Bacillus subtilis at 50 ug/well after 24 hrs by agar well diffusion method; conditions: for zone of inhibition at 50 µg/disc: read-out: DIZ
Staphylococcus aureus [11] = assay: Antibacterial activity against Staphylococcus aureus at 100 ug/well after 24 hrs by agar well diffusion method; conditions: for zone of inhibition at 100 µg/disc: read-out: DIZ
Staphylococcus aureus [12] = assay: Antibacterial activity against Staphylococcus aureus at 50 ug/well after 24 hrs by agar well diffusion method; conditions: for zone of inhibition at 50 µg/disc: read-out: DIZ

| Structure (SMILES) | zone of inhibition at 100 µg/disc (Penicillium chrysogenum [1]) [mm] | zone of inhibition at 50 µg/disc (Penicillium chrysogenum [2]) [mm] | zone of inhibition at 50 µg/disc (Aspergillus niger [3]) [mm] | zone of inhibition at 100 µg/disc (Aspergillus niger [4]) [mm] | zone of inhibition at 100 µg/disc (Klebsiella pneumoniae [5]) [mm] | zone of inhibition at 50 µg/disc (Klebsiella pneumoniae [6]) [mm] | zone of inhibition at 100 µg/disc (Pseudomonas aeruginosa [7]) [mm] | zone of inhibition at 50 µg/disc (Pseudomonas aeruginosa [8]) [mm] | zone of inhibition at 100 µg/disc (Bacillus subtilis [9]) [mm] | zone of inhibition at 50 µg/disc (Bacillus subtilis [10]) [mm] | zone of inhibition at 100 µg/disc (Staphylococcus aureus [11]) [mm] | zone of inhibition at 50 µg/disc (Staphylococcus aureus [12]) [mm] | diameter of the inhibition zone (DIZ) (Klebsiella pneumoniae [5]) | diameter of the inhibition zone (DIZ) (Klebsiella pneumoniae [6]) | diameter of the inhibition zone (DIZ) (Pseudomonas aeruginosa [7]) | diameter of the inhibition zone (DIZ) (Pseudomonas aeruginosa [8]) | diameter of the inhibition zone (DIZ) (Bacillus subtilis [9]) | diameter of the inhibition zone (DIZ) (Bacillus subtilis [10]) | diameter of the inhibition zone (DIZ) (Staphylococcus aureus [11]) | diameter of the inhibition zone (DIZ) (Staphylococcus aureus [12]) |
| --- | --- | --- | --- | --- | --- | --- | --- | --- | --- | --- | --- | --- | --- | --- | --- | --- | --- | --- | --- | --- |
| O=S(=O)(c1ccccc1)c1c(-c2ccc(Cl)cc2)nn(-c2ccccc2)c1-c1ccc(-c2c(S(=O)(=O)c3ccccc3)c(-c3ccc(Cl)cc3)nn2-c2ccccc2)cc1 | 30 | 27 | 24 | 27 | 23 | 21 | 19 | 17 | 31 | 28 | 25 | 23 |  |  |  |  |  |  |  |  |
| COc1ccc(C2=NOC(c3ccc(C4ON=C(c5ccc(OC)cc5)C4S(=O)(=O)c4ccc(C)cc4)cc3)C2S(=O)(=O)c2ccc(C)cc2)cc1 (stereo not given) | 18 | 15 | 16 | 19 |  |  |  |  |  |  |  |  | inactive | inactive | inactive | inactive | inactive | inactive | inactive | inactive |
| COc1ccc(C2=NN(c3ccccc3)C(c3ccc(C4C(S(=O)(=O)c5ccc(C)cc5)C(c5ccc(OC)cc5)=NN4c4ccccc4)cc3)C2S(=O)(=O)c2ccc(C)cc2)cc1 (stereo not given) | 13 | 10 | 8 | 9 |  |  |  |  |  |  |  |  | inactive | inactive | inactive | inactive | inactive | inactive | inactive | inactive |
| COc1ccc(C2=NN(c3ccccc3)C(c3ccc(C4C(S(=O)(=O)c5ccccc5)C(c5ccc(OC)cc5)=NN4c4ccccc4)cc3)C2S(=O)(=O)c2ccccc2)cc1 (stereo not given) | 16 | 12 | 8 | 10 |  |  |  |  |  |  |  |  | inactive | inactive | inactive | inactive | inactive | inactive | inactive | inactive |
| COc1ccc(-c2nn(-c3ccccc3)c(-c3ccc(-c4c(S(=O)(=O)c5ccccc5)c(-c5ccc(OC)cc5)nn4-c4ccccc4)cc3)c2S(=O)(=O)c2ccccc2)cc1 | 25 | 23 | 20 | 22 | 16 | 15 | 14 | 12 | 24 | 20 | 19 | 17 |  |  |  |  |  |  |  |  |
| Cc1ccc(S(=O)(=O)c2c(-c3ccc(Cl)cc3)nn(-c3ccccc3)c2-c2ccc(-c3c(S(=O)(=O)c4ccc(C)cc4)c(-c4ccc(Cl)cc4)nn3-c3ccccc3)cc2)cc1 | 29 | 26 | 22 | 26 | 23 | 21 | 18 | 15 | 30 | 28 | 26 | 24 |  |  |  |  |  |  |  |  |
| Cc1ccc(S(=O)(=O)C2C(c3ccc(Cl)cc3)=NOC2c2ccc(C3ON=C(c4ccc(Cl)cc4)C3S(=O)(=O)c3ccc(C)cc3)cc2)cc1 (stereo not given) | 21 | 17 | 15 | 17 | 12 | 10 |  |  | 18 | 16 | 15 | 12 |  |  | inactive | inactive |  |  |  |  |
| COc1ccc(C2=NN(c3ccccc3)C(c3ccc(C4C(S(=O)(=O)c5ccc(Cl)cc5)C(c5ccc(OC)cc5)=NN4c4ccccc4)cc3)C2S(=O)(=O)c2ccc(Cl)cc2)cc1 (stereo not given) | 17 | 15 | 10 | 11 |  |  |  |  |  |  |  |  | inactive | inactive | inactive | inactive | inactive | inactive | inactive | inactive |
| O=S(=O)(c1ccc(Cl)cc1)C1C(c2ccc(Cl)cc2)=NOC1c1ccc(C2ON=C(c3ccc(Cl)cc3)C2S(=O)(=O)c2ccc(Cl)cc2)cc1 (stereo not given) | 23 | 21 | 18 | 20 | 14 | 12 | 13 | 11 | 21 | 19 | 16 | 14 |  |  |  |  |  |  |  |  |
| O=S(=O)(c1ccccc1)C1C(c2ccc(Cl)cc2)=NN(c2ccccc2)C1c1ccc(C2C(S(=O)(=O)c3ccccc3)C(c3ccc(Cl)cc3)=NN2c2ccccc2)cc1 (stereo not given) | 18 | 15 | 13 | 15 | 12 | 10 |  |  | 14 | 12 | 13 | 11 |  |  | inactive | inactive |  |  |  |  |
| COc1ccc(-c2nn(-c3ccccc3)c(-c3ccc(-c4c(S(=O)(=O)c5ccc(Cl)cc5)c(-c5ccc(OC)cc5)nn4-c4ccccc4)cc3)c2S(=O)(=O)c2ccc(Cl)cc2)cc1 | 26 | 24 | 25 | 27 | 17 | 15 | 16 | 14 | 25 | 23 | 20 | 18 |  |  |  |  |  |  |  |  |
| COc1ccc(C2=NOC(c3ccc(C4ON=C(c5ccc(OC)cc5)C4S(=O)(=O)c4ccccc4)cc3)C2S(=O)(=O)c2ccccc2)cc1 (stereo not given) | 17 | 14 | 18 | 20 |  |  |  |  |  |  |  |  | inactive | inactive | inactive | inactive | inactive | inactive | inactive | inactive |
| COc1ccc(-c2noc(-c3ccc(-c4onc(-c5ccc(OC)cc5)c4S(=O)(=O)c4ccc(C)cc4)cc3)c2S(=O)(=O)c2ccc(C)cc2)cc1 | 27 | 25 | 22 | 24 | 18 | 16 | 17 | 15 | 27 | 25 | 22 | 20 |  |  |  |  |  |  |  |  |
| COc1ccc(-c2nn(-c3ccccc3)c(-c3ccc(-c4c(S(=O)(=O)c5ccc(C)cc5)c(-c5ccc(OC)cc5)nn4-c4ccccc4)cc3)c2S(=O)(=O)c2ccc(C)cc2)cc1 | 24 | 22 | 19 | 21 | 15 | 13 | 13 | 11 | 22 | 20 | 18 | 15 |  |  |  |  |  |  |  |  |
| COc1ccc(C2=NOC(c3ccc(C4ON=C(c5ccc(OC)cc5)C4S(=O)(=O)c4ccc(Cl)cc4)cc3)C2S(=O)(=O)c2ccc(Cl)cc2)cc1 (stereo not given) | 19 | 16 | 14 | 16 | 11 | 9 |  |  | 15 | 13 | 12 | 9 |  |  | inactive | inactive |  |  |  |  |
